Test results as given in BindingDB's records for patent US20230365590 (Shenzhen Chipscreen Biosciences, 2023).

Target: Programmed cell death 1 ligand/protein 1 (Homo sapiens, UniProt Q15116+Q9NZQ7)
Assay: In Vitro Inhibitory Activity Against PD-1/PD-L1 Binding
Experimental: The experiment process was carried out according to the flow required in the operating manual of the test reagent.The process was as follows:(1) Experiment preparation: A test compound was diluted to different concentration gradients with the dilution buffer (the highest final concentration in a 20 μL final reaction system was 10 μM). The His-PD-1 protein was diluted to 800 nM (the final concentration in the 20 final reaction system was 100 nM). The PD-L1-Fc fusion protein was diluted to 16 nM (the final concentration was 2 nM). […] All tests were conducted by use of multiple holes.(4) The fluorescence detector Tecan (Spark 10M) was used to detect the fluorescence signal of each hole. The excitation wavelength was 320 nm, and the emission wavelengths for detection were 620 nm and 665 nm, respectively. The strength of PD-1/PD-L1 binding refers to a fluorescence signal ratio Em665/Em620.(5) Calculation formula of binding inhibition rate of test compound: Inhibition rate (%)=[1−(fluorescence signal ratio of detected hole−fluorescence signal ratio of 100% inhibition negative control)]/(fluorescence signal ratio of 0% inhibition positive control−fluorescence signal ratio of 100% inhibition negative control)×100%. […]

Programmed cell death 1 ligand/protein 1, sequence (Q9NZQ7 whole entry): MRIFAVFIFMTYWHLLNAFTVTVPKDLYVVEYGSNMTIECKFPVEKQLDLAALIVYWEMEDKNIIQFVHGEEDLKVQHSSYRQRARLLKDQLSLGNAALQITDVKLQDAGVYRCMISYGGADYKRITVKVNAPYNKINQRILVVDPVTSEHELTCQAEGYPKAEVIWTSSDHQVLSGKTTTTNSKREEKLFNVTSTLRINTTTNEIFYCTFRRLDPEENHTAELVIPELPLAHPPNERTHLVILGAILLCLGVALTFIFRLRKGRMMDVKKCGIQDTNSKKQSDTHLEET
Programmed cell death 1 ligand/protein 1, sequence (Q15116 whole entry): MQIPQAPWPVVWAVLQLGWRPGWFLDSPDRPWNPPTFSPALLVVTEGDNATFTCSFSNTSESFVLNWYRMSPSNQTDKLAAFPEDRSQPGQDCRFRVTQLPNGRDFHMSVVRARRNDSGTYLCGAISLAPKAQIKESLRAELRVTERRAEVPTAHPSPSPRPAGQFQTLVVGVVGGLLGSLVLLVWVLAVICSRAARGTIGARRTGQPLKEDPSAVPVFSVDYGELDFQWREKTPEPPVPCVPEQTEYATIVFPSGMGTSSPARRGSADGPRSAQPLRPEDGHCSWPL

COCC12CCC(CCN3CCc4c(nc(C(=O)Nc5cccc(-c6cccc(NC(=O)c7nc8c(n7C)CCN(CCC79CCC(C(=O)O)(CC7)C9)C8)c6Cl)c5Cl)n4C)C3)(CC1)C2 [US20230365590, Compound I-6]
IC50: 1.17 nM
